Biological target: T1, p300 (Homo sapiens, UniProt Q09472)
T1 construct: host or cells: A549 P300 HiBit cells
Experiment: P300 degradation, HiBit technology in A549 P300 HiBit cells (2 h)
Format: cell-based
Settings: 2 hrs post treatment; for Dmax: A549, A549 P300 HiBit cells; for DC50: A549 P300 HiBit cells
Summary of the method: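 Endogenously HiBiT-tagged A549 cells are plated, left overnight, then treated with a compound dilution series at 37 °C and 5% CO2. At the set time, lytic detection buffer is added and plates are shaken 10 min at room temperature before luminescence is measured to derive potency and Dmax.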

T1 sequence (Q09472 whole entry): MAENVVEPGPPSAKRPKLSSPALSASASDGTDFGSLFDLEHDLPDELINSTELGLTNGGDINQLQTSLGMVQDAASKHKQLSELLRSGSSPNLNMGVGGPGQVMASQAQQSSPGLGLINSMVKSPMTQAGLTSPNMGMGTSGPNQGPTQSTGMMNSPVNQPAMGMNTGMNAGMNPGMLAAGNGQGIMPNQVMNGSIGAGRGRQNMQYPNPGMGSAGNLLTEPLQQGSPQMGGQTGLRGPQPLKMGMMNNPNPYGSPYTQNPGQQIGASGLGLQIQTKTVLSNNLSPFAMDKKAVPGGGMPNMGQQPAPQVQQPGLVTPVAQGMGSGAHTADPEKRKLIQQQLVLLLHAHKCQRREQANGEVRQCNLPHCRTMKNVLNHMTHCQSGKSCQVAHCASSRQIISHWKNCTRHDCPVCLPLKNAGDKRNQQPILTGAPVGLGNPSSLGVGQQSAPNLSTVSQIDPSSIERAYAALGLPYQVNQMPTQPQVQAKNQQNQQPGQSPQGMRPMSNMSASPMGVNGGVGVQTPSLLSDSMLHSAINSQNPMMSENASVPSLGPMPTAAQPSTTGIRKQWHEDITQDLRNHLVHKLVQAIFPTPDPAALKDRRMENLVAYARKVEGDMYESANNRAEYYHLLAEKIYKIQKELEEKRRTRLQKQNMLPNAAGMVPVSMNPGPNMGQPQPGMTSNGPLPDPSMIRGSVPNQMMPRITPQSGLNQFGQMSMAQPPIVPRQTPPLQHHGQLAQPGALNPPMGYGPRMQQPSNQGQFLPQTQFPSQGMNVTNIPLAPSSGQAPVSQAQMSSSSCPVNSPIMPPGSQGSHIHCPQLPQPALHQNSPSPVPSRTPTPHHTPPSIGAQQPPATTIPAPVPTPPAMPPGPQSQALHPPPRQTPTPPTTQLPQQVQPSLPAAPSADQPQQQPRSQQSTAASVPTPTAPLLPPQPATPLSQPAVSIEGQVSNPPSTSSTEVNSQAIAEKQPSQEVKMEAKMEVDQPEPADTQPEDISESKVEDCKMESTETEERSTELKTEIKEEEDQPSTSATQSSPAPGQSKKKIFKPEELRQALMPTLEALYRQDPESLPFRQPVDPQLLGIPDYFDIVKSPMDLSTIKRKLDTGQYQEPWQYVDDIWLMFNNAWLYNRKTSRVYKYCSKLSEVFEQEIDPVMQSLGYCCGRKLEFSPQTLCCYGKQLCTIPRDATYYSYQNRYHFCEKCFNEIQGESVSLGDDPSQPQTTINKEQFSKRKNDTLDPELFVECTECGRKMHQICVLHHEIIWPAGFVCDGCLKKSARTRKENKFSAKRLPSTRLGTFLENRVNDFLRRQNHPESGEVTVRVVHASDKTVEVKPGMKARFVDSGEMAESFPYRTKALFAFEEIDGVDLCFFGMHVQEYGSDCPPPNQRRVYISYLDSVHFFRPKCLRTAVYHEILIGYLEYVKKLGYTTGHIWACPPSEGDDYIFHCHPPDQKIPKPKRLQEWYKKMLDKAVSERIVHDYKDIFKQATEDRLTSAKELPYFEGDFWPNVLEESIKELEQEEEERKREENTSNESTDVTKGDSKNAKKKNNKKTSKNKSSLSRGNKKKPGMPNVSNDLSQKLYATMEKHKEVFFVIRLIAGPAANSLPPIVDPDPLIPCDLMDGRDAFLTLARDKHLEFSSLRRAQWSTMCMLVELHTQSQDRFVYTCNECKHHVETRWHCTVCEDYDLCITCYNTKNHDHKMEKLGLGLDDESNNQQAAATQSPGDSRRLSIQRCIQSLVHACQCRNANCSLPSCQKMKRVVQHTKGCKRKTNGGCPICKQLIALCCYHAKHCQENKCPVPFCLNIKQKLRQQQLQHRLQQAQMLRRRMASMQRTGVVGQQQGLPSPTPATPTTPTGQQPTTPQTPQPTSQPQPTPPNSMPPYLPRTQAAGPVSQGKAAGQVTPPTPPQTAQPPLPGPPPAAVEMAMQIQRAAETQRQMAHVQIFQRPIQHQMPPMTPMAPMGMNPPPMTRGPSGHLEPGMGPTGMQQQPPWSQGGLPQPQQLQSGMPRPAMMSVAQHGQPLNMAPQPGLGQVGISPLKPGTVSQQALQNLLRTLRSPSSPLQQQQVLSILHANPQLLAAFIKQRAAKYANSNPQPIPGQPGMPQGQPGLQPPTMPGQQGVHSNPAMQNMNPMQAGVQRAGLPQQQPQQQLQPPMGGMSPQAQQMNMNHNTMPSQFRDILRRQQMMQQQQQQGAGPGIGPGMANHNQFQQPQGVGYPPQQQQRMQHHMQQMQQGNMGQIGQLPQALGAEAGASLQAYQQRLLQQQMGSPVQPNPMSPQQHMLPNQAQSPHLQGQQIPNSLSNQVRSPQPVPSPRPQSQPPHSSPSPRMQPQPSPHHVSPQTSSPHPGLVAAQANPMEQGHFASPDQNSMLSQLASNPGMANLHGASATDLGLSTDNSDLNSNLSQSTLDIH

Row | Structure (SMILES) | Dmax [%] | DC50 [nM]
1 | CCc1cc2c(N3CCCc4nc(-c5ccc(C(=O)NCC#Cc6ccc7occ(C8CCC(=O)NC8=O)c7c6)nc5)ncc43)cc(C3CCOCC3)cc2n(C)c1=O (stereo not shown) [Example B122, N-(3-(3-(2,6-dioxopiperidin-3-yl)benzofuran-5-yl)prop-2-yn-1-yl)-5-(5-(3-ethyl-1-methyl-2-oxo-7-(tetrahydro-2H-pyran-4-yl)-1,2-dihydroquinolin-5-yl)-5,6,7,8-tetrahydropyrido [3,2-d]pyrimidin-2-yl)picolinamide] | < 20 | > 1000
2 | Cc1cc2c(N3CCCc4nc(-c5ccc(C(=O)NCC#Cc6cc7c(C8CCC(=O)NC8=O)cccc7o6)nc5)ncc43)cc(Cl)cc2n(C)c1=O (stereo not shown) [Example B126, 5-(5-(7-chloro-1,3-dimethyl-2-oxo-1,2-dihydroquinolin-5-yl)-5,6,7,8-tetrahydropyrido [3,2-d]pyrimidin-2-yl)-N-(3-(4-(2,6-dioxo-piperidin-3-yl)benzofuran-2-yl)prop-2-yn-1-yl)picolinamide] | > 80 | 1 to 9.9
3 | Cc1cc2c(N3CCCc4nc(-c5ccc(C(=O)NCC#Cc6ccc7occ(C8CCC(=O)NC8=O)c7c6)nc5)ncc43)nc(N(C)C)cc2n(C)c1=O (stereo not shown) [Example B128, 5-(5-(7-(dimethylamino)-1,3-dimethyl-2-oxo-1,2-dihydro-1,6-naphthyridin-5-yl)-5,6,7,8-tetrahydropyrido[3,2-d]pyrimidin-2-yl)-N-(3-(3-(2,6-dioxopiperidin-3-yl)benzofuran-5-yl)prop-2-yn-1-yl)picolinamide] | > 80 | 1 to 9.9
4 | Cc1cc2c(N3CCCc4cc(-c5ccc(C(=O)NCC#Cc6ccc7occ(C8CCC(=O)NC8=O)c7c6)nc5)c(F)cc43)cccc2n(C)c1=O (stereo not shown) [Example B129, N-(3-(3-(2,6-dioxopiperidin-3-yl)benzofuran-5-yl)prop-2-yn-1-yl)-5-(7-fluoro-1′,3′-dimethyl-2′-oxo-1′,2′,3,4-tetrahydro-2H-[1,5′-biquinolin]-6-yl)picolinamide] | > 80 | 1 to 9.9

Continued, values first:

Row | Dmax [%] | DC50 [nM] | Structure (SMILES)
5 | > 80 | 1 to 9.9 | Cc1cc(N2CCCc3nc(-c4ccc(C(=O)NCC#Cc5cc6c(C7CCC(=O)NC7=O)nccc6o5)nc4)ncc32)c2cc(C)c(=O)n(C)c2c1 (stereo not shown) [Example B120, N-(3-(4-(2,6-dioxopiperidin-3-yl)furo[3,2-c]pyridin-2-yl)prop-2-yn-1-yl)-5-(5-(1,3,7-trimethyl-2-oxo-1,2-dihydroquinolin-5-yl)-5,6,7,8-tetrahydropyrido[3,2-d]pyrimidin-2-yl) picolinamide]
6 | 40 to 59 | 1 to 9.9 | CCc1cc2c(cc(C)c(=O)n2C)c(N2CCCc3nc(-c4ccc(C(=O)NCC#Cc5ccc6occ(C7CCC(=O)NC7=O)c6c5)nc4)ncc32)n1 (stereo not shown) [Example B121, N-(3-(3-(2,6-dioxopiperidin-3-yl)benzofuran-5-yl)prop-2-yn-1-yl)-5-(5-(7-ethyl-1,3-dimethyl-2-oxo-1,2-dihydro-1,6-naphthyridin-5-yl)-5,6,7,8-tetrahydropyrido[3,2-d]pyrimidin-2-yl)picolinamide]
7 | > 80 | 1 to 9.9 | Cc1cc2c(N3CCCc4nc(-c5ccc(C(=O)NCC#Cc6ccc7occ(C8CCC(=O)NC8=O)c7c6)nc5)ncc43)cc(C(C)C)cc2n(C)c1=O (stereo not shown) [Example B125, N-(3-(3-(2,6-dioxopiperidin-3-yl)benzofuran-5-yl)prop-2-yn-1-yl)-5-(5-(7-isopropyl-1,3-dimethyl-2-oxo-1,2-dihydroquinolin-5-yl)-5,6,7,8-tetrahydropyrido[3,2-d]pyrimidin-2-yl)picolinamide]
8 | 60 to 79 | 1 to 9.9 | Cc1cc2c(N3CCCc4nc(-c5ccc(C(=O)NCC#Cc6ccc7occ(C8CCC(=O)NC8=O)c7c6)nc5)ncc43)nc(C(C)C)cc2n(C)c1=O (stereo not shown) [Example B130, N-(3-(3-(2,6-dioxopiperidin-3-yl)benzofuran-5-yl)prop-2-yn-1-yl)-5-(5-(7-isopropyl-1,3-dimethyl-2-oxo-1,2-dihydro-1,6-naphthyridin-5-yl)-5,6,7,8-tetrahydropyrido[3,2-d]pyrimidin-2-yl)picolinamide]

From US20250114345A1, “COMPOUNDS AND COMPOSITIONS AS CBP/P300 DEGRADERS AND USES THEREOF” (Oncopia Therapeutics, Inc. d/b/a/ SK Life Science Labs, priority 2023, published 2025)
